Laboratory results from ChEMBL document CHEMBL1201862, “PubChem BioAssay data set” (2004).
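Briefly, cells in 96-well plates were exposed to five compound concentrations for 48 h, and endpoints were estimated by linear interpolation. At the GI50, growth is halved.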 The source made the active and inactive calls. No stated cut-off is given here; in the data, active = GI50 up to about 1.1 µM and inactive = higher.

How the values were obtained:
Assay in all cases: NCI tumour cell line growth inhibition, 48 h
ACHN = system: ACHN
A549 = system: A549
SW-620 = system: SW-620
SK-OV-3 = system: SK-OV-3
NCI-H23 = system: NCI-H23
A498 = system: A498
SN12C = system: SN12C
NCI-H522 = system: NCI-H522
KM12 = system: KM12
HT-29 = system: HT-29
RPMI-8226 = system: RPMI-8226
MOLT-4 = system: MOLT-4
HCT-116 = system: HCT-116
IGROV-1 = system: IGROV-1
U-251 = system: U-251
NCI-H460 = system: NCI-H460
K562 = system: K562
SF-295 = system: SF-295
UACC-62 = system: UACC-62
SK-MEL-5 = system: SK-MEL-5
RXF 393 = system: RXF 393
UO-31 = system: UO-31
SNB-75 = system: SNB-75
HOP-18 = system: HOP-18
CAKI-1 = system: CAKI-1
LXFL 529 = system: LXFL 529
HOP-92 = system: HOP-92
OVCAR-5 = system: OVCAR-5
SK-MEL-28 = system: SK-MEL-28
Malme-3M = system: Malme-3M
SNB-19 = system: SNB-19
EKVX = system: EKVX
HCT-15 = system: HCT-15
SK-MEL-2 = system: SK-MEL-2
HCC 2998 = system: HCC 2998
NCI-H226 = system: NCI-H226
HOP-62 = system: HOP-62
SR = system: SR
OVCAR-4 = system: OVCAR-4
OVCAR-8 = system: OVCAR-8
UACC-257 = system: UACC-257
786-0 = system: 786-0
M14 = system: M14
DLD-1 = system: DLD-1
DMS-114 = system: DMS-114
TK-10 = system: TK-10
COLO 205 = system: COLO 205
KM-20L2 = system: KM-20L2
DMS-273 = system: DMS-273
HL-60 = system: HL-60
CCRF-CEM = system: CCRF-CEM
SF-268 = system: SF-268
SNB-78 = system: SNB-78
SF-539 = system: SF-539
XF498 = system: XF498
OVCAR-3 = system: OVCAR-3
M19-MEL = system: M19-MEL
LOX IMVI = system: LOX IMVI

COC(=O)C1CCC[C@H]2C(CO)=C(C)C(=O)[C@@H]12 (some centres not stated)
GI50 (ACHN): > 100 µM (inactive)
GI50 (A549): > 100 µM (inactive)
GI50 (SW-620): > 100 µM (inactive)
GI50 (SK-OV-3): > 100 µM (inactive)
GI50 (NCI-H23): > 100 µM (inactive)
GI50 (A498): > 100 µM (inactive)
GI50 (SN12C): > 100 µM (inactive)
GI50 (NCI-H522): > 100 µM (inactive)
GI50 (KM12): > 100 µM (inactive)
GI50 (HT-29): > 100 µM (inactive)
GI50 (RPMI-8226): > 100 µM (inactive)
GI50 (MOLT-4): > 100 µM (inactive)
GI50 (HCT-116): > 100 µM (inactive)
GI50 (IGROV-1): > 100 µM (inactive)
GI50 (U-251): > 100 µM (inactive)
GI50 (NCI-H460): > 100 µM (inactive)
GI50 (K562): > 100 µM (inactive)
GI50 (SF-295): > 100 µM (inactive)
GI50 (UACC-62): > 100 µM (inactive)
GI50 (SK-MEL-5): > 100 µM (inactive)
GI50 (RXF 393): > 100 µM (inactive)
GI50 (UO-31): > 100 µM (inactive)
GI50 (SNB-75): > 100 µM (inactive)
GI50 (HOP-18): > 100 µM (inactive)
GI50 (CAKI-1): > 100 µM (inactive)
GI50 (LXFL 529): > 100 µM (inactive)
GI50 (HOP-92): > 100 µM (inactive)
GI50 (OVCAR-5): > 100 µM (inactive)
GI50 (SK-MEL-28): > 100 µM (inactive)
GI50 (Malme-3M): > 100 µM (inactive)
GI50 (SNB-19): > 100 µM (inactive)
GI50 (EKVX): > 100 µM (inactive)
GI50 (HCT-15): > 100 µM
GI50 (SK-MEL-2): > 100 µM (inactive)
GI50 (HCC 2998): > 100 µM (inactive)
GI50 (NCI-H226): > 100 µM (inactive)
GI50 (HOP-62): > 100 µM (inactive)
GI50 (SR): > 100 µM (inactive)
GI50 (OVCAR-4): > 100 µM (inactive)
GI50 (OVCAR-8): > 100 µM (inactive)
GI50 (UACC-257): > 100 µM (inactive)
GI50 (786-0): > 100 µM (inactive)
GI50 (M14): > 100 µM (inactive)
GI50 (DLD-1): > 100 µM (inactive)
GI50 (DMS-114): > 100 µM (inactive)
GI50 (TK-10): > 100 µM (inactive)
GI50 (COLO 205): > 100 µM (inactive)
GI50 (KM-20L2): > 100 µM (inactive)
GI50 (DMS-273): > 100 µM (inactive)
GI50 (HL-60): > 100 µM (inactive)
GI50 (CCRF-CEM): > 100 µM (inactive)
GI50 (SF-268): > 100 µM (inactive)
GI50 (SNB-78): > 100 µM (inactive)
GI50 (SF-539): > 100 µM (inactive)
GI50 (XF498): > 100 µM (inactive)

N#C/C(=N\c1ccccc1N(C(=O)c1ccccc1)C(=O)c1ccccc1)c1ccccc1
GI50 (ACHN): > 60.5 µM (inactive)
GI50 (A549): 9.04 µM (inactive)
GI50 (SW-620): 6.52 µM (inactive)
GI50 (SK-OV-3): > 100 µM (inactive)
GI50 (OVCAR-3): 8.91 µM (inactive)
GI50 (NCI-H23): > 62.5 µM (inactive)
GI50 (A498): > 59.2 µM (inactive)
GI50 (SN12C): > 71.8 µM (inactive)
GI50 (NCI-H522): 4.91 µM (inactive)
GI50 (KM12): 3.62 µM (inactive)
GI50 (M19-MEL): > 100 µM (inactive)
GI50 (HT-29): 15.3 µM (inactive)
GI50 (RPMI-8226): 5.97 µM (inactive)
GI50 (MOLT-4): 3.82 µM (inactive)
GI50 (HCT-116): 6.43 µM (inactive)
GI50 (IGROV-1): 6.67 µM (inactive)
GI50 (U-251): 10.3 µM (inactive)
GI50 (NCI-H460): 32.8 µM (inactive)
GI50 (K562): 3.49 µM (inactive)
GI50 (SF-295): 8.89 µM (inactive)
GI50 (UACC-62): 35.9 µM (inactive)
GI50 (SK-MEL-5): 70.8 µM (inactive)
GI50 (UO-31): > 55.5 µM (inactive)
GI50 (SNB-75): > 100 µM (inactive)
GI50 (HOP-18): > 40.4 µM (inactive)
GI50 (CAKI-1): 47.6 µM (inactive)
GI50 (LXFL 529): 41 µM (inactive)
GI50 (HOP-92): 24.7 µM (inactive)
GI50 (OVCAR-5): > 47.4 µM (inactive)
GI50 (SK-MEL-28): > 100 µM (inactive)
GI50 (LOX IMVI): 27.2 µM (inactive)
GI50 (Malme-3M): > 100 µM (inactive)
GI50 (SNB-19): 3.62 µM (inactive)
GI50 (EKVX): > 100 µM (inactive)
GI50 (HCT-15): 5.14 µM
GI50 (SK-MEL-2): 42.1 µM (inactive)
GI50 (HCC 2998): > 68.4 µM (inactive)
GI50 (NCI-H226): > 69.5 µM (inactive)
GI50 (HOP-62): > 30.7 µM (inactive)
GI50 (SR): 2.4 µM (inactive)
GI50 (OVCAR-4): 32.2 µM (inactive)
GI50 (OVCAR-8): 10.3 µM (inactive)
GI50 (UACC-257): > 100 µM (inactive)
GI50 (786-0): > 91.6 µM (inactive)
GI50 (M14): > 100 µM (inactive)
GI50 (DLD-1): > 42 µM (inactive)
GI50 (DMS-114): 4.63 µM (inactive)
GI50 (TK-10): > 100 µM (inactive)
GI50 (COLO 205): > 42 µM (inactive)
GI50 (KM-20L2): 9.71 µM (inactive)
GI50 (DMS-273): 3.83 µM (inactive)
GI50 (HL-60): 0.923 µM (active)
GI50 (CCRF-CEM): 2.25 µM (inactive)
GI50 (SF-268): > 100 µM (inactive)
GI50 (SNB-78): > 91 µM (inactive)
GI50 (SF-539): > 100 µM (inactive)
GI50 (XF498): 7.8 µM (inactive)
